{"source": "ChEMBL document CHEMBL1201862", "about": "“PubChem BioAssay data set” (2004)", "test_in_all_cases": "growth of human tumour cells (NCI), 48 h", "key": {"[1]": {"test_system": "SF-539"}, "[2]": {"test_system": "NCI-H460"}, "[3]": {"test_system": "UO-31"}, "[4]": {"test_system": "PC-3"}, "[5]": {"test_system": "TK-10"}, "[6]": {"test_system": "OVCAR-5"}, "[7]": {"test_system": "SK-MEL-5"}, "[8]": {"test_system": "HCC 2998"}, "[9]": {"test_system": "KM12"}, "[10]": {"test_system": "COLO 205"}, "[11]": {"test_system": "CAKI-1"}, "[12]": {"test_system": "SK-OV-3"}, "[13]": {"test_system": "RXF 393"}, "[14]": {"test_system": "786-0"}, "[15]": {"test_system": "A549"}, "[16]": {"test_system": "MDA-MB-231"}, "[17]": {"test_system": "SK-MEL-28"}, "[18]": {"test_system": "MOLT-4"}, "[19]": {"test_system": "SN12C"}, "[20]": {"test_system": "MDA-N"}, "[21]": {"test_system": "LOX IMVI"}, "[22]": {"test_system": "MDA-MB-435"}, "[23]": {"test_system": "SNB-75"}, "[24]": {"test_system": "SK-MEL-2"}, "[25]": {"test_system": "EKVX"}, "[26]": {"test_system": "HCT-116"}, "[27]": {"test_system": "CCRF-CEM"}, "[28]": {"test_system": "IGROV-1"}, "[29]": {"test_system": "OVCAR-4"}, "[30]": {"test_system": "HL-60"}, "[31]": {"test_system": "BT-549"}, "[32]": {"test_system": "NCI-H522"}, "[33]": {"test_system": "Hs-578T"}, "[34]": {"test_system": "ACHN"}, "[35]": {"test_system": "SF-295"}, "[36]": {"test_system": "SR"}, "[37]": {"test_system": "UACC-62"}, "[38]": {"test_system": "MCF7"}, "[39]": {"test_system": "NCI-H226"}, "[40]": {"test_system": "RPMI-8226"}, "[41]": {"test_system": "UACC-257"}, "[42]": {"test_system": "U-251"}, "[43]": {"test_system": "DU-145"}, "[44]": {"test_system": "NCI/ADR-RES"}, "[45]": {"test_system": "HOP-92"}, "[46]": {"test_system": "K562"}, "[47]": {"test_system": "OVCAR-3"}, "[48]": {"test_system": "A498"}, "[49]": {"test_system": "HT-29"}, "[50]": {"test_system": "M14"}, "[51]": {"test_system": "SF-268"}, "[52]": {"test_system": "SNB-19"}, "[53]": {"test_system": "NCI-H23"}, "[54]": {"test_system": "SW-620"}, "[55]": {"test_system": "HCT-15"}, "[56]": {"test_system": "OVCAR-8"}, "[57]": {"test_system": "HOP-62"}, "[58]": {"test_system": "T47D"}}, "note": "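Protocol summary: plate cells (96-well), add compound at 5 concentrations, incubate 48 h, interpolate endpoints linearly. GI50 marks 50% less growth.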 Active and inactive are the calls of the source. No stated cut-off is given here; in the data, active = GI50 up to about 1.1 µM and inactive = higher.", "data": [{"smiles": "O=C(/C=C\\c1ccc(-c2ccccc2)cc1)c1cccs1", "values": [{"measurement": "GI50", "setting": "[1]", "value": "7.18 µM (inactive)"}, {"measurement": "GI50", "setting": "[2]", "value": "56.4 µM (inactive)"}, {"measurement": "GI50", "setting": "[3]", "value": "16.6 µM (inactive)"}, {"measurement": "GI50", "setting": "[4]", "value": "> 100 µM (inactive)"}, {"measurement": "GI50", "setting": "[5]", "value": "46.2 µM (inactive)"}, {"measurement": "GI50", "setting": "[6]", "value": "45.2 µM (inactive)"}, {"measurement": "GI50", "setting": "[7]", "value": "> 70 µM (inactive)"}, {"measurement": "GI50", "setting": "[8]", "value": "> 28.4 µM (inactive)"}, {"measurement": "GI50", "setting": "[9]", "value": "4.42 µM (inactive)"}, {"measurement": "GI50", "setting": "[10]", "value": "> 39.2 µM (inactive)"}, {"measurement": "GI50", "setting": "[11]", "value": "35.7 µM (inactive)"}, {"measurement": "GI50", "setting": "[12]", "value": "64.9 µM (inactive)"}, {"measurement": "GI50", "setting": "[13]", "value": "10.9 µM (inactive)"}, {"measurement": "GI50", "setting": "[14]", "value": "11.6 µM (inactive)"}, {"measurement": "GI50", "setting": "[15]", "value": "> 79.6 µM (inactive)"}, {"measurement": "GI50", "setting": "[16]", "value": "48.5 µM (inactive)"}, {"measurement": "GI50", "setting": "[17]", "value": "> 100 µM (inactive)"}, {"measurement": "GI50", "setting": "[18]", "value": "3.1 µM (inactive)"}, {"measurement": "GI50", "setting": "[19]", "value": "7.45 µM (inactive)"}, {"measurement": "GI50", "setting": "[20]", "value": "7.89 µM (inactive)"}, {"measurement": "GI50", "setting": "[21]", "value": "3.88 µM (inactive)"}, {"measurement": "GI50", "setting": "[22]", "value": "17.5 µM (inactive)"}, {"measurement": "GI50", "setting": "[23]", "value": "28.6 µM (inactive)"}, {"measurement": "GI50", "setting": "[24]", "value": "39.4 µM (inactive)"}, {"measurement": "GI50", "setting": "[25]", "value": "53 µM (inactive)"}, {"measurement": "GI50", "setting": "[26]", "value": "27.4 µM (inactive)"}, {"measurement": "GI50", "setting": "[27]", "value": "2.42 µM (inactive)"}, {"measurement": "GI50", "setting": "[28]", "value": "29.4 µM (inactive)"}, {"measurement": "GI50", "setting": "[29]", "value": "> 54.2 µM (inactive)"}, {"measurement": "GI50", "setting": "[30]", "value": "3.89 µM (inactive)"}, {"measurement": "GI50", "setting": "[31]", "value": "15.6 µM (inactive)"}, {"measurement": "GI50", "setting": "[32]", "value": "3.87 µM (inactive)"}, {"measurement": "GI50", "setting": "[33]", "value": "9.59 µM (inactive)"}, {"measurement": "GI50", "setting": "[34]", "value": "32.3 µM (inactive)"}, {"measurement": "GI50", "setting": "[35]", "value": "29.7 µM (inactive)"}, {"measurement": "GI50", "setting": "[36]", "value": "2.7 µM (inactive)"}, {"measurement": "GI50", "setting": "[37]", "value": "16.4 µM (inactive)"}, {"measurement": "GI50", "setting": "[38]", "value": "3.56 µM (inactive)"}, {"measurement": "GI50", "setting": "[39]", "value": "> 69.8 µM (inactive)"}, {"measurement": "GI50", "setting": "[40]", "value": "3.23 µM (inactive)"}, {"measurement": "GI50", "setting": "[41]", "value": "> 100 µM (inactive)"}, {"measurement": "GI50", "setting": "[42]", "value": "5.09 µM (inactive)"}, {"measurement": "GI50", "setting": "[43]", "value": "5.56 µM (inactive)"}, {"measurement": "GI50", "setting": "[44]", "value": "26.7 µM (inactive)"}, {"measurement": "GI50", "setting": "[45]", "value": "> 69.2 µM (inactive)"}, {"measurement": "GI50", "setting": "[46]", "value": "3.7 µM (inactive)"}, {"measurement": "GI50", "setting": "[47]", "value": "9.29 µM (inactive)"}, {"measurement": "GI50", "setting": "[48]", "value": "8.67 µM (inactive)"}, {"measurement": "GI50", "setting": "[49]", "value": "3.38 µM (inactive)"}, {"measurement": "GI50", "setting": "[50]", "value": "> 100 µM (inactive)"}, {"measurement": "GI50", "setting": "[51]", "value": "22.5 µM (inactive)"}, {"measurement": "GI50", "setting": "[52]", "value": "> 59.2 µM (inactive)"}, {"measurement": "GI50", "setting": "[53]", "value": "22 µM (inactive)"}, {"measurement": "GI50", "setting": "[54]", "value": "5.41 µM (inactive)"}, {"measurement": "GI50", "setting": "[55]", "value": 7.74, "unit": "µM"}, {"measurement": "GI50", "setting": "[56]", "value": "6.44 µM (inactive)"}, {"measurement": "GI50", "setting": "[57]", "value": "25.3 µM (inactive)"}]}, {"smiles": "Oc1c(C(O)c2ccccn2)ccc2ccccc12", "note": "(stereo not drawn)", "values": [{"measurement": "GI50", "setting": "[1]", "value": "87.3 µM (inactive)"}, {"measurement": "GI50", "setting": "[3]", "value": "29.6 µM (inactive)"}, {"measurement": "GI50", "setting": "[4]", "value": "26.9 µM (inactive)"}, {"measurement": "GI50", "setting": "[7]", "value": "22.7 µM (inactive)"}, {"measurement": "GI50", "setting": "[8]", "value": "17.1 µM (inactive)"}, {"measurement": "GI50", "setting": "[9]", "value": "54.1 µM (inactive)"}, {"measurement": "GI50", "setting": "[58]", "value": "> 100 µM (inactive)"}, {"measurement": "GI50", "setting": "[13]", "value": "32.9 µM (inactive)"}, {"measurement": "GI50", "setting": "[15]", "value": "61.7 µM (inactive)"}, {"measurement": "GI50", "setting": "[18]", "value": "19.6 µM (inactive)"}, {"measurement": "GI50", "setting": "[19]", "value": "48.1 µM (inactive)"}, {"measurement": "GI50", "setting": "[21]", "value": "> 100 µM (inactive)"}, {"measurement": "GI50", "setting": "[23]", "value": "24.4 µM (inactive)"}, {"measurement": "GI50", "setting": "[25]", "value": "53.1 µM (inactive)"}, {"measurement": "GI50", "setting": "[26]", "value": "32.2 µM (inactive)"}, {"measurement": "GI50", "setting": "[27]", "value": "17.9 µM (inactive)"}, {"measurement": "GI50", "setting": "[30]", "value": "15.1 µM (inactive)"}, {"measurement": "GI50", "setting": "[32]", "value": "17.4 µM (inactive)"}, {"measurement": "GI50", "setting": "[33]", "value": "35.1 µM (inactive)"}, {"measurement": "GI50", "setting": "[34]", "value": "66.4 µM (inactive)"}, {"measurement": "GI50", "setting": "[35]", "value": "> 100 µM (inactive)"}, {"measurement": "GI50", "setting": "[37]", "value": "14.4 µM (inactive)"}, {"measurement": "GI50", "setting": "[39]", "value": "85.3 µM (inactive)"}, {"measurement": "GI50", "setting": "[41]", "value": "> 100 µM (inactive)"}, {"measurement": "GI50", "setting": "[42]", "value": "52 µM (inactive)"}, {"measurement": "GI50", "setting": "[43]", "value": "> 100 µM (inactive)"}, {"measurement": "GI50", "setting": "[44]", "value": "42.1 µM (inactive)"}, {"measurement": "GI50", "setting": "[46]", "value": "26.4 µM (inactive)"}, {"measurement": "GI50", "setting": "[47]", "value": "56.8 µM (inactive)"}, {"measurement": "GI50", "setting": "[50]", "value": "> 100 µM (inactive)"}, {"measurement": "GI50", "setting": "[51]", "value": "72.4 µM (inactive)"}, {"measurement": "GI50", "setting": "[52]", "value": "> 100 µM (inactive)"}, {"measurement": "GI50", "setting": "[53]", "value": "69.8 µM (inactive)"}, {"measurement": "GI50", "setting": "[55]", "value": 22.1, "unit": "µM"}, {"measurement": "GI50", "setting": "[56]", "value": "74.6 µM (inactive)"}, {"measurement": "GI50", "setting": "[57]", "value": "81.3 µM (inactive)"}]}]}
